Reference: patent US5171835A, “LHRH antagonists” (The Administrators of the Tulane Educational Fund, priority 1991, dated 1992)

How the values were obtained:
[1] = system: perfused rat pituitary cell system (LH response to LH-RH); experiment: LH-RH inhibiting activity in superfused rat pituitary cell system; format: cell-based
Experimental: Immediately after that, a mixture containing the same concentration of peptide and 3 nM LHRH is administered for 3 min. This was followed by four consecutive infusions of 3 nM LHRH for 3 min (1 ml perfusate) at 30 min intervals (30, 60, 90, 120 min). LH content of the 1 ml fractions collected is determined by radioimmunoassay (RIA).

[2] = system: ovulation in 4-day-cycling rats; experiment: In vivo antiovulatory activity in 4-day-cycling rats; parameters: species or system rat
Experimental: (b) In vivo antiovulatory activity of peptides is determined in 4-day-cycling rats as described [A. Corbin and C. W. Beattie, Endocr. Res. Commun., 2, 1-23 (1975)].

[3] = system: membrane receptors of human breast cancer cells; experiment: Receptor binding, human breast cancer cell membranes (125I-[D-Trp6]LHRH as labelled ligand); details: 125I-[D-Trp]6 LHRH labelled ligand; for Affinity Constant Ka 1: NB = no binding
Experimental: Affinity of peptides to rat pituitary and human breast cancer cell membranes is determined by using labelled LHRH and [D-Trp^6 ]LHRH. The assay is carried out similarly to that described by T. Kadar et al., Proc. Natl. Acad. Sci. USA, 85, 890-894 (1988) and M. Fekete et al., Endocrinology, 124, 946-955 (1989).

[4] = system: LH and FSH levels; experiment: In vivo effect on LH and FSH levels in castrated male rats; parameters: species or system rat; details: s.c.
Experimental: (d) In vivo effect on LH and FSH levels was measured as described by L. Bokser et al. (Proc. Natl. Acad. Sci. US, accepted for publication.) Castrated male rats weighing 350-410 grams anaesthetized with urethane were injected subcutaneously with Peptide 7 and 8 in doses of 1.25 μg and 5.0 μg. Blood samples were taken from the jugular vein before injection and 1, 2, 3, 4, 6, 24 and 48 hours after the administration of peptides. Control animals were injected only with saline. LH and FSH levels were determined by specific RIAs.

[5] = antagonist to LH-RH ratio 1:1, 0 min
[6] = antagonist to LH-RH ratio 1:1, 30 min
[7] = antagonist to LH-RH ratio 1:1, 60 min
[8] = antagonist to LH-RH ratio 1:1, 90 min
[9] = antagonist to LH-RH ratio 3:1, 0 min
[10] = antagonist to LH-RH ratio 3:1, 30 min
[11] = antagonist to LH-RH ratio 3:1, 60 min
[12] = antagonist to LH-RH ratio 3:1, 90 min

## Ac-D-Nal(2)-D-Phe(4Cl)-D-Pal(3)-Ser-Tyr-D-Lys[DL-A2 bu(Car)2 ]-Leu-Arg-Pro-D-Ala-NH2 [Peptide 16]
[1]; [5]
  % inhibition of LH response: 52%
[1]; [6]
  % inhibition of LH response: 33%
[1]; [7]
  % inhibition of LH response: 24%
[1]; [8]
  % inhibition of LH response: 28%
[2]; dose 1.5 μg
  % Blockade of Ovulation: 33%

## Ac-D-Nal(2)-D-Phe(4Cl)-D-Pal(3)-Ser-Arg-D-Lys[A2 pr(Ac)2 ]-Leu-Arg-Pro-D-Ala-NH2 [Peptide 2]
[1]; [5]
  % inhibition of LH response: 26%
[1]; [6]
  % inhibition of LH response: 27%
[1]; [7]
  % inhibition of LH response: 29%
[1]; [8]
  % inhibition of LH response: 25%
[1]; [9]
  % inhibition of LH response: 88%
[1]; [10]
  % inhibition of LH response: 41%
[1]; [11]
  % inhibition of LH response: 13%
[3]
  Affinity Constant Ka 2: 0.32 µM⁻¹
  Affinity Constant Ka 1: 16.35 nM⁻¹

## Ac-D-Nal(2)-D-Phe(4Cl)-D-Pal(3)-Ser-Tyr-D-Lys[A2 pr(Car)2 ]-Leu-Arg-Pro-D-Ala-NH2 [Peptide 7]
[1]; [5]
  % inhibition of LH response: 57%
[1]; [6]
  % inhibition of LH response: 51%
[1]; [7]
  % inhibition of LH response: 45%
[1]; [8]
  % inhibition of LH response: 41%
[1]; [9]
  % inhibition of LH response: 96%
[1]; [10]
  % inhibition of LH response: 78%
[1]; [11]
  % inhibition of LH response: 70%
[1]; [12]
  % inhibition of LH response: 58%
[3]
  Affinity Constant Ka 2: 5.72 µM⁻¹
  Affinity Constant Ka 1: 6.27 nM⁻¹
[4]; dose of 5 μg, 48 hours, p<0.05
  inhibition of LH levels forty-eight hours after injection: significant inhibition
[4]; p<0.01
  duration of significant decrease in the LH levels: more than 24 hours

## Ac-D-Nal(2)-D-Phe(4Cl)-D-Pal(3)-Ser-Tyr-D-Lys[DL-A2 bu(LAU)2 ]-Leu-Arg-Pro-D-Ala-NH2 [Peptide 19]
[1]; [5]
  % inhibition of LH response: 20%
[1]; [6]
  % inhibition of LH response: 20%
[1]; [7]
  % inhibition of LH response: 0%
[1]; [8]
  % inhibition of LH response: 0%
[3]
  Affinity Constant Ka 2: 0 µM⁻¹
  Affinity Constant Ka 1: 0 nM⁻¹

## Ac-D-Nal(2)-D-Phe(4Cl)-D-Pal(3)-Ser-Tyr-D-Lys[A2 pr]-Leu-Arg-Pro-D-Ala-NH2 [Peptide 25]
[1]; [5]
  % inhibition of LH response: 57%
[1]; [6]
  % inhibition of LH response: 49%
[1]; [7]
  % inhibition of LH response: 43%
[1]; [9]
  % inhibition of LH response: 85%
[1]; [10]
  % inhibition of LH response: 69%
[1]; [11]
  % inhibition of LH response: 62%
[1]; [12]
  % inhibition of LH response: 57%
[3]
  Affinity Constant Ka 2: 1.29 µM⁻¹
  Affinity Constant Ka 1: 3.49 nM⁻¹

## Ac-D-Nal(2)-D-Phe(4Cl)-D-Pal(3)-Ser-Arg-D-Lys[A2 pr(For)2 ]-Leu-Arg-Pro-D-Ala-NH2 [Peptide 3]
[1]; [9]
  % inhibition of LH response: 93%
[1]; [10]
  % inhibition of LH response: 43%
[1]; [11]
  % inhibition of LH response: 26%
[1]; [12]
  % inhibition of LH response: 24%

## Ac-D-Nal(2)-D-Phe(4Cl)-D-Pal(3)-Ser-Tyr-D-Lys[A2 pr(CHC)2 ]-Leu-Arg-Pro-D-Ala-NH2 [Peptide 12]
[3]
  Affinity Constant Ka 2: 3.57 µM⁻¹
  Affinity Constant Ka 1: 1.68 nM⁻¹

## Ac-D-Nal(2)-D-Phe(4Cl)-D-Pal(3)-Ser-Tyr-D-Lys[DL-A2 bu(PRL)2 ]-Leu-Arg-Pro-D-Ala-NH2 [Peptide 18]
[1]; [9]
  % inhibition of LH response: 90%
[1]; [10]
  % inhibition of LH response: 71%
[1]; [11]
  % inhibition of LH response: 58%
[1]; [12]
  % inhibition of LH response: 54%
[2]; dose 0.75 μg
  % Blockade of Ovulation: 75%
[3]
  Affinity Constant Ka 2: 6.17 µM⁻¹
  Affinity Constant Ka 1: 21.18 nM⁻¹

## Ac-D-Nal(2)-D-Phe(4Cl)-D-Trp-Ser-Arg-D-Lys[A2 pr(Car)2 ]-Leu-Arg-Pro-D-Ala-NH2 [Peptide 22]
[1]; [9]
  % inhibition of LH response: 64%
[1]; [10]
  % inhibition of LH response: 22%
[1]; [11]
  % inhibition of LH response: 24%
[3]
  Affinity Constant Ka 2: 2.67 µM⁻¹
  Affinity Constant Ka 1: 4.09 nM⁻¹

## Ac-D-Nal(2)-D-Phe(4Cl)-D-Pal(3)-Ser-Tyr-D-Lys[DL-A2 bu(For)2 ]-Leu-Arg-Pro-D-Ala-NH2 [Peptide 15]
[1]; [5]
  % inhibition of LH response: 44%
[1]; [6]
  % inhibition of LH response: 41%
[1]; [7]
  % inhibition of LH response: 22%
[1]; [8]
  % inhibition of LH response: 23%
[1]; [9]
  % inhibition of LH response: 99%
[1]; [10]
  % inhibition of LH response: 60%
[1]; [11]
  % inhibition of LH response: 34%
[1]; [12]
  % inhibition of LH response: 21%
[2]; dose 1.5 μg
  % Blockade of Ovulation: 100%
[2]; dose is 0.375 μg
  % Blockade of Ovulation: 25%

## Ac-D-Nal(2)-D-Phe(4Cl)-D-Pal(3)-Ser-Tyr-D-Lys[DL-A2 bu(Ac)2 ]-Leu-Arg-Pro-D-Ala-NH2 [Peptide 14]
[1]; [9]
  % inhibition of LH response: 80%
[1]; [10]
  % inhibition of LH response: 63%
[1]; [11]
  % inhibition of LH response: 51%
[1]; [12]
  % inhibition of LH response: 53%
[2]; dose 1.5 μg
  % Blockade of Ovulation: 20%
[3]
  Affinity Constant Ka 2: 0.28 µM⁻¹
  Affinity Constant Ka 1: 4.83 nM⁻¹

## Ac-D-Nal(2)-D-Phe(4Cl)-D-Pal(3)-Ser-Arg-D-Lys[A2 pr(EtCar)2 ]-Leu-Arg-Pro-D-Ala-NH2 [Peptide 4]
[1]; [9]
  % inhibition of LH response: 91%
[1]; [10]
  % inhibition of LH response: 50%
[1]; [11]
  % inhibition of LH response: 42%
[1]; [12]
  % inhibition of LH response: 41%
[3]
  Affinity Constant Ka 2: 0.05 µM⁻¹
  Affinity Constant Ka 1: 9.71 nM⁻¹

## Ac-D-Nal(2)-D-Phe(4Cl)-D-Pal(3)-Ser-Arg-D-Lys[A2 pr(Car)2 ]-Leu-Arg-Pro-D-Ala-NH2 [Peptide 1]
[1]; [5]
  % inhibition of LH response: 80%
[1]; [6]
  % inhibition of LH response: 46%
[1]; [7]
  % inhibition of LH response: 31%
[1]; [9]
  % inhibition of LH response: 95%
[1]; [10]
  % inhibition of LH response: 59%
[1]; [11]
  % inhibition of LH response: 55%
[1]; [12]
  % inhibition of LH response: 52%
[3]
  Affinity Constant Ka 2: 3.15 µM⁻¹
  Affinity Constant Ka 1: 7.07 nM⁻¹

## Ac-D-Nal(2)-D-Phe(4Cl)-D-Pal(3)-Ser-Tyr-D-Lys[DL-A2 bu]-Leu-Arg-Pro-D-Ala-NH2 [Peptide 26]
[1]; [5]
  % inhibition of LH response: 70%
[1]; [6]
  % inhibition of LH response: 52%
[1]; [7]
  % inhibition of LH response: 37%
[1]; [9]
  % inhibition of LH response: 90%
[1]; [10]
  % inhibition of LH response: 75%
[1]; [11]
  % inhibition of LH response: 62%
[1]; [12]
  % inhibition of LH response: 57%

## Ac-D-Nal(2)-D-Phe(4Cl)-D-Pal(3)-Ser-Tyr-D-Lys[A2 pr(EtCar)2 ]-Leu-Arg-Pro-D-Ala-NH2 [Peptide 9]
[1]; [9]
  % inhibition of LH response: 90%
[1]; [10]
  % inhibition of LH response: 72%
[2]; dose 0.75 μg
  % Blockade of Ovulation: 20%
[2]; dose 1.5 μg
  % Blockade of Ovulation: 50%
[3]
  Affinity Constant Ka 2: 8.57 µM⁻¹
  Affinity Constant Ka 1: 30.92 nM⁻¹

## Ac-D-Nal(2)-D-Phe(4Cl)-D-Trp-Ser-Arg-D-Lys[A2 pr(For)2 ]-Leu-Arg-Pro-D-Ala-NH2 [Peptide 24]
[1]; [5]
  % inhibition of LH response: 36%
[1]; [6]
  % inhibition of LH response: 11%
[1]; [7]
  % inhibition of LH response: 0%
[1]; [8]
  % inhibition of LH response: 9%
[1]; [9]
  % inhibition of LH response: 58%
[1]; [10]
  % inhibition of LH response: 5%
[1]; [11]
  % inhibition of LH response: 18%
[1]; [12]
  % inhibition of LH response: 27%
[2]; dose 1.5 μg
  % Blockade of Ovulation: 50%

## Ac-D-Nal(2)-D-Phe(4Cl)-D-Trp-Ser-Arg-D-Lys[A2 pr(Ac)2 ]-Leu-Arg-Pro-D-Ala-NH2 [Peptide 23]
[1]; [9]
  % inhibition of LH response: 52%
[1]; [10]
  % inhibition of LH response: 22%
[1]; [11]
  % inhibition of LH response: 21%
[1]; [12]
  % inhibition of LH response: 22%
[3]
  Affinity Constant Ka 2: 0.14 µM⁻¹
  Affinity Constant Ka 1: 6.87 nM⁻¹

## Ac-D-Nal(2)-D-Phe(4Cl)-D-Pal(3)-Ser-Tyr-D-Lys[A2 pr(For)2 ]-Leu-Arg-Pro-D-Ala-NH2 [Peptide 10]
[2]; dose 0.75 μg
  % Blockade of Ovulation: 67%
[2]; dose 1.5 μg
  % Blockade of Ovulation: 100%
[3]
  Affinity Constant Ka 2: 2.11 µM⁻¹
  Affinity Constant Ka 1: 48.29 nM⁻¹
